{"source": "patent US20110224245A1", "about": "“Treatment Of Neurological Disorders Using Huperzine” (President and Fellows of Harvard College, priority 2008, published 2011)", "key": {"6 Hz seizures [1]": {"system": "6 Hz seizures", "experiment": "6 Hz anticonvulsant evaluation in mice, ICV administration", "type": "in vivo", "from_the_text": "Huperzine delivered directly to the central nervous system (e.g., cerebral ventricles, intrathecal space), via direct injection and/or through an apparatus such as a pump or material containing Huperzine, bypasses the systemic effect by minimizing bioavailability of Huperzine in the rest of the body, and potently prevents and treats seizure, pain and/or other neurological conditions.\nResults after direct administration to neural tissue using an art-recognized 6-HZ animal model are shown below.\nDoses listed as pmol/5 microliter injection volume for ICV. TD50 at 0.5 hrs: 36.15 (9.35-121.74) 1.57+/−0.51.\n(§1) Male, 18-25 g CF1 mice and 100-125 g Sprague-Dawley rats (Charles River Laboratories, Wilmington, Mass.) were used as the experimental animals. Animals were pretreated intraperitoneally (i.p.) with increasing doses of HupA and tested at various times after administration for protection against tonic extension (MES test), minimal clonic (s.c. PTZ test), limbic (6 Hz), or secondarily generalized (kindled rat) seizures. Seizure testing was carried out as follows. For the MES and 6 Hz tests, a drop of anesthetic/electrolyte solution (0.5% tetracaine hydrochloride in 0.9% saline) was applied to the eyes of each animal prior to placement of the corneal electrodes. The electrical stimulus in the MES test was 50 mA, 60 Hz, for mice and 150 mA, 60 Hz, for rats, delivered for 0.2 sec (White et al., 2002, In R. H. Levy et al., eds. Antiepileptic Drugs, 5th edition, p. 36-48, Philadelphia: Lippincott Williams & Wilkins). The ability of the test substance to prevent seizures induced by 6 Hz corneal stimulation (32 mA, 3 sec duration) was assessed at various times after i.p. administration of 1 mg/kg HupA For assessment of hippocampal kindling, HupA (1 mg/kg, i.p.) was administered. The ability of the compound to block the expression of hippocampal kindled seizures was evaluated using the rapid hippocampal kindling model (White et al., 2002). Animals not displaying secondarily generalize seizures were considered protected."}, "mice": {"system": "mice", "experiment": "Toxicity Model (TOX), rotorod / minimal motor impairment, mice i.p.", "type": "in vivo", "conditions": "for Comment (6 Hz test, 22 mA) / Comment (6 Hz test, 32 mA): 1 h", "from_the_text": "To investigate the neurotoxicity levels of the huperzine compounds, the Toxicity Model (TOX) using a rotorod is employed. The animals (e.g., mice) were trained to stand on an accelerating rotorod rotating at 10 rev min^−1 with a diameter of 3.2 cm. The trained animal can be given the huperzine compound at various doses and the effect of huperzine on their motor skills can be determined. The dose at which the animals fell off the rotorod is the toxic dose.\nThe neurotoxicity of huperzine was tested in the rotorod test. The mice were trained to stand on an accelerating rotorod rotating at 10 rev min^−1 with a diameter of 3.2 cm. The trained animals were given the huperzine at various doses and the effect of huperzine on their motor skills was determined. The dose at which the animals fell off the rotorod was the toxic dose.\nHuperzine A was either administered in a soluble form (SOL) or as a suspension (SUS). […] To produce the suspension, huperzine A was ground to a powder using a mortar and pestle, and the powder mixed with methyl cellulose. This mixture was then sonicated to produce a suspension that was subsequently administered to mice in the weight range of 19.0 to 25.5 g. The data are presented as the number of mice showing an effect (N) from the full number of mice (F) tested. […] At four hours post administration, all three mice were protected (i.e., 100% were protected). […]\nMinimal toxicity was identified in mice by the rotorod procedure."}, "[2]": {"system": "Subcutaneous Metrazol (pentylenetetrazol; SCMET) seizures", "experiment": "Subcutaneous Metrazol (SCMET / scPTZ) model, rats, oral", "type": "in vivo", "method": "Huperzine A was evaluated in the Maximal Electroshock (MES) and Subcutaneous Metrazol (pentylenetetrazol; SCMET) models of generalized tonic-clonic and myoclonic seizures, respectively in mice and rats.\nThe Subcutaneous Metrazole (SCMET) model is also an art-recognized test for therapeutic agents for epilepsy, and in particular, is useful for investigating petite mal seizures. A Metrazole dose of 85 mg/kg was administered subcutaneously to induce seizures. Huperzine was then administered and the animals observed.\nPeak anticonvulsant activity was observed one-hour after p.o. administration of 1 mg/kg."}, "rats": {"system": "rats", "experiment": "Toxicity (TOX) / minimal motor impairment, rats, oral", "type": "in vivo"}, "6 Hz seizures [3]": {"system": "6 Hz seizures", "experiment": "6 Hz seizure test, mice i.p.", "type": "in vivo", "conditions": "for Time to Peak Effect N/F: 6 HZ, 0.83 mg/kg", "method": "HupA was also evaluated for its ability to modify tonic extension, minimal clonic, limbic seizures in the maximal electroshock seizure (MES), subcutaneous pentylenetetrazol (sc PTZ), and 6 Hz seizure tests following intraperitoneal administration. These three tests are highly predictive of efficacy against human generalized tonic-clonic (MES), generalized myoclonic (sc PTZ), and refractory limbic (6 Hz) seizures, respectively. In addition, it was tested for its ability to prevent the expression of Stage V seizures in the hippocampal kindled rat model of partial epilepsy.\nas §1"}, "patients": {"system": "patients", "conditions": "published clinical studies; mainly cholinergic (dizziness, nausea, gastrointestinal symptoms, sweating, depressed heart rate); cited from earlier work"}}, "note": "“Also recorded” adds a separate entry of the source.", "data": [{"smiles": "C/C=C1\\[C@H]2C=C(C)C[C@]1(N)c1ccc(=O)[nH]c1C2", "note": "[Huperzine A]", "values": [{"measurement": "ED50", "setting": "6 Hz seizures [1]; 6 HZ, ICV, 32 mA, 0.5 h", "value": "0.21 pmol/5 microliter injection volume"}, {"measurement": "N/F (animals active over number tested)", "setting": "6 Hz seizures [1]; ICV, 32 mA, 0.5 h, dose 0.01 (pmol/5 microliter; head prints mg/kg)", "value": "3/8"}, {"measurement": "N/F (animals active over number tested)", "setting": "6 Hz seizures [1]; ICV, 32 mA, 0.5 h, dose 1 (pmol/5 microliter; head prints mg/kg)", "value": "5/8"}, {"measurement": "N/F (animals active over number tested)", "setting": "6 Hz seizures [1]; ICV, 32 mA, 0.5 h, dose 10 (pmol/5 microliter; head prints mg/kg)", "value": "6/8"}, {"measurement": "N/F (animals active over number tested)", "setting": "6 Hz seizures [1]; ICV, 32 mA, 0.5 h, dose 100 (pmol/5 microliter; head prints mg/kg)", "value": "8/8"}, {"measurement": "N/F (animals active over number tested)", "setting": "6 Hz seizures [1]; ICV, 32 mA, 0.5 h, dose 1000 (pmol/5 microliter; head prints mg/kg)", "value": "4/4"}, {"measurement": "Time to Peak Effect N/F", "setting": "6 Hz seizures [1]; ICV, 32 mA, dose 10 (pmol/5 microliter), 0.25 h", "value": "2/4"}, {"measurement": "Time to Peak Effect N/F", "setting": "6 Hz seizures [1]; ICV, 32 mA, dose 10 (pmol/5 microliter), 0.5 h", "value": "3/4"}, {"measurement": "Time to Peak Effect N/F", "setting": "6 Hz seizures [1]; ICV, 32 mA, dose 100 (pmol/5 microliter), 0.25 h", "value": "4/4"}, {"measurement": "Time to Peak Effect N/F", "setting": "6 Hz seizures [1]; ICV, 32 mA, dose 100 (pmol/5 microliter), 0.5 h", "value": "3/4"}, {"measurement": "Time to Peak Effect N/F", "setting": "6 Hz seizures [1]; ICV, 32 mA, dose 100 (pmol/5 microliter), 1.0 h", "value": "1/4"}, {"measurement": "ICV ED50 dose", "setting": "6 Hz seizures [1]; mouse 6-hz model, ICV", "value": 52, "unit": "pgrams"}, {"measurement": "maximum concentration in the cerebral ventricles after the ICV ED50 dose", "setting": "6 Hz seizures [1]; mouse 6-hz model, ICV ED50 dose, 40 μL", "value": "approximately 1.3 pgram/μL"}, {"measurement": "TOX N/F (mice showing an effect / mice tested)", "setting": "mice; 0.1 mg/kg i.p., SOL, 4.0 h", "value": "0/4"}, {"measurement": "Comment (6 Hz test, 22 mA)", "setting": "mice; 0.18 mg/kg IP", "value": "Minimal motor impairment"}, {"measurement": "Comment (6 Hz test, 32 mA)", "setting": "mice; 0.2 mg/kg IP", "value": "Tremors"}, {"measurement": "Comment (6 Hz test, 32 mA)", "setting": "mice; 0.3 mg/kg IP", "value": "Tremors; also recorded: Minimal motor impairment"}, {"measurement": "TOX N/F (mice showing an effect / mice tested)", "setting": "mice; 0.3 mg/kg i.p., SOL, 4.0 h", "value": "0/4"}, {"measurement": "Comment (6 Hz test, 22 mA)", "setting": "mice; 0.35 mg/kg IP", "value": "Minimal motor impairment"}, {"measurement": "Comment (6 Hz test, 32 mA)", "setting": "mice; 0.42 mg/kg IP", "value": "Tremors; also recorded: Minimal motor impairment"}, {"measurement": "Comment (6 Hz test, 22 mA)", "setting": "mice; 0.7 mg/kg IP", "value": "Tremors; also recorded: Minimal motor impairment"}, {"measurement": "Comment (6 Hz test, 32 mA)", "setting": "mice; 0.83 mg/kg IP", "value": "Tremors; also recorded: Minimal motor impairment"}, {"measurement": "TOX N/F (mice showing an effect / mice tested)", "setting": "mice; 1 mg/kg i.p., SOL, 0.5 h, (T) animals displaying tremors", "value": "4/4 (T)^2"}, {"measurement": "TOX N/F (mice showing an effect / mice tested)", "setting": "mice; 1 mg/kg i.p., SOL, 4.0 h, (T) animals displaying tremors", "value": "2/2 (T)"}, {"measurement": "TOX N/F (mice showing an effect / mice tested)", "setting": "mice; 3 mg/kg i.p., SUS, 0.5 h", "value": "8/8"}, {"measurement": "TOX N/F (mice showing an effect / mice tested)", "setting": "mice; 3 mg/kg i.p., SUS, 4.0 h, (T) animals displaying tremors", "value": "4/4 (T)"}, {"measurement": "TOX N/F (mice showing an effect / mice tested)", "setting": "mice; 10 mg/kg i.p., SUS, 0.5 h", "value": "4/4"}, {"measurement": "TOX N/F (mice showing an effect / mice tested)", "setting": "mice; 10 mg/kg i.p., SUS, 4.0 h, (T) animals displaying tremors", "value": "2/2 (T)"}, {"measurement": "TOX N/F (mice showing an effect / mice tested)", "setting": "mice; 30 mg/kg i.p., SUS, 0.5 h, (D) death of animals", "value": "4/4 (D)^3"}, {"measurement": "TOX N/F (mice showing an effect / mice tested)", "setting": "mice; 100 mg/kg i.p., SUS, 0.5 h, (D) death of animals", "value": "8/8 (D)"}, {"measurement": "TOX N/F (mice showing an effect / mice tested)", "setting": "mice; 300 mg/kg i.p., SUS, 0.5 h, (D) death of animals", "value": "4/4 (D)"}, {"measurement": "behavioral impairment at anticonvulsant doses", "setting": "mice; mice", "value": "marked motor impairment"}, {"measurement": "time of peak anticonvulsant activity", "setting": "[2]; after p.o. administration of 1 mg/kg", "value": "one-hour"}, {"measurement": "time of peak activity post administration", "setting": "[2]; rats, 1 mg/kg oral", "value": "between 30 minutes and two hours"}, {"measurement": "behavioral impairment at anticonvulsant doses", "setting": "rats", "value": "marked motor impairment"}, {"measurement": "toxicity", "setting": "rats; 1 mg/kg oral", "value": "no toxicity"}, {"measurement": "protection in the mouse 6 Hz test (FIG. 1)", "setting": "6 Hz seizures [3]; 0.8 mg/kg", "value": "time-dependent protection"}, {"measurement": "Time to Peak Effect N/F", "setting": "6 Hz seizures [3]; 0.25 h", "value": "1/4"}, {"measurement": "Time to Peak Effect N/F", "setting": "6 Hz seizures [3]; 0.5 h", "value": "1/4"}, {"measurement": "Time to Peak Effect N/F", "setting": "6 Hz seizures [3]; 1.0 h", "value": "4/4"}, {"measurement": "Time to Peak Effect N/F", "setting": "6 Hz seizures [3]; 2.0 h", "value": "2/4"}, {"measurement": "Time to Peak Effect N/F", "setting": "6 Hz seizures [3]; 4.0 h", "value": "0/4"}, {"measurement": "protection against 6 Hz seizures (FIG. 2)", "setting": "6 Hz seizures [3]; mouse, in vivo", "value": "dose-dependent protection"}, {"measurement": "adverse effects in patients", "setting": "patients", "value": "adverse effects were noted infrequently"}]}]}
